Biological target: T1, GR (Homo sapiens, UniProt P04150)
T1 construct: expressed in transfected cells; host or cells: CHO-K1 (CHO-K1-GR-MMTV-Luc reporter cells)
T1 sequence (P04150 1-777): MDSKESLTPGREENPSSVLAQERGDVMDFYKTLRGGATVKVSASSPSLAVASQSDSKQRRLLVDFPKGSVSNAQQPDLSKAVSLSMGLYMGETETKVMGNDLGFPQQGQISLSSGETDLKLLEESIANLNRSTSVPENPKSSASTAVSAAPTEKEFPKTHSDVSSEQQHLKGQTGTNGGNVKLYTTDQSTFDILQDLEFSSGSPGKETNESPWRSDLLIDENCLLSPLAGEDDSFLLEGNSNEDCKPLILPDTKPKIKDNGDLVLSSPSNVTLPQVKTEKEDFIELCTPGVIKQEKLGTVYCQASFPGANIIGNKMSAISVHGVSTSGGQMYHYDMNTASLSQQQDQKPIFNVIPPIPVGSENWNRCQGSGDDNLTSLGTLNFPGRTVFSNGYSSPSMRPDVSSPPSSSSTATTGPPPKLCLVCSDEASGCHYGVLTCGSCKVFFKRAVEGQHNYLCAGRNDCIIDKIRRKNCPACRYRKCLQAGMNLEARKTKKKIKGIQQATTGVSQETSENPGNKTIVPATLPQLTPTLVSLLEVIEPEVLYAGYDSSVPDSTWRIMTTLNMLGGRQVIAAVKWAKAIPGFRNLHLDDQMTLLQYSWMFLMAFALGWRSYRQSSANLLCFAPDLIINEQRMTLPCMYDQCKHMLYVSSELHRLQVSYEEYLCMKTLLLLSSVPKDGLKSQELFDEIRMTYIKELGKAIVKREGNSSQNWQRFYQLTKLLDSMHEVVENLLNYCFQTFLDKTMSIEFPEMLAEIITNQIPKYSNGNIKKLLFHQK
Assay: In Vitro GR Luciferase Reporter Assay (antagonist assay)
Type: cell-based
Details: CHO-K1-GR-MMTV-Luc reporter cells, 10 nM Dexamethasone, 18-24 hours
Experimental: Example A: In Vitro GR Luciferase Reporter Assay
Cell Line: CHO-K1-GR-MMTV-Luc reporter cells
Culture Media: DMEM (with phenol red)+10% FBS
Assay Media: DMEM (without phenol red)+10% CSS
Culture CHO-K1-GR-MMTV-Luc reporter cells in T175 flasks in Culture Media at conditions less than 90% confluence.
Using Bravo (Agilent) liquid handler:
200× DMSO 1:3 serial dilutions of control and test compounds in 96-well non-sterile V bottom plate in DMSO, 12 points for each compound were prepared.
Prepared 5× compound serial dilutions: Add 97.5 μL/well of Assay Media into 96-well non-sterile V bottom plate then added 2.5 ul of 200× concentration of compounds and mix well.
Seeded cells for Antagonist Assay: 5200 CHO-K1-GR-MMTV-Luc reporter cells were seeded in Greiner #781080 flat clear bottom 384-well white TC plate in 20 ul of Assay Media containing 12.5 nM Dexamethasone (final concentration=10 nM).
Added compounds: 5 μl of 5× compounds were added to appropriate wells and followed with a quick spin (1000 rpm, 10 sec) to bring media and cells to the bottom of plate. The plates were covered with SealMate film to avoid evaporation and placed in 37° C. incubator for approximately 18-24 hours.
Read plates: Equilibrate appropriate amount of Promega OneGlo luciferase reagent to room temperature. Remove the plates from incubator and add 25 uL of OneGlo reagent/well by Bravo and read the plates on Tecan Spark plate reader within 15 minutes.
The ability of the compounds disclosed herein to inhibit GR activity was quantified and the respective IC50 value was determined. Table 1 provides the cellular IC50 values of compounds disclosed herein.

| SMILES | IC50 |
| --- | --- |
| Cn1cc(S(=O)(=O)N(Cc2ncco2)[C@H]2CCC3=Cc4c(cnn4-c4ccc(F)cc4)C[C@]3(C(=O)c3cc(C(F)(F)F)ccn3)C2)cn1 [Example 54] | ≤ 100 nM |
| Cn1cnc(S(=O)(=O)N(C2CC2)[C@H]2CCC3=Cc4c(cnn4-c4ccc(F)cn4)C[C@]3(C(=O)c3ncc(C(C)(C)C)s3)C2)n1 [Example 65] | ≤ 100 nM |
| Cn1cc(S(=O)(=O)N(C2CC(F)(F)C2)[C@H]2CCC3=Cc4c(cnn4-c4ccc(F)nc4)C[C@]3(C(=O)c3cc(C(C)(C)C)ccn3)C2)cn1 [Example 76] | ≤ 100 nM |
| Cn1cc(S(=O)(=O)N(C2CC2)[C@H]2CCC3=Cc4c(cnn4-c4ccnc(F)c4)C[C@]3(C(=O)c3cc(C(F)(F)F)ccn3)C2)cn1 [Example 39] | ≤ 100 nM |
| Cn1cnc(S(=O)(=O)N(C2CC(F)(F)C2)[C@H]2CCC3=Cc4c(cnn4-c4ccc(F)nc4)C[C@]3(C(=O)c3cc(C(C)(C)C)ccn3)C2)n1 [Example 75] | ≤ 100 nM |
| Cn1ncnc1S(=O)(=O)[C@H]1CCC2=Cc3c(cnn3-c3ccc(F)cc3)C[C@]2(C(=O)c2cc(C(F)(F)F)ccn2)C1 [Example 17] | ≤ 100 nM |
| Cn1cnc(S(=O)(=O)N(C2CC2)[C@H]2CCC3=Cc4c(cnn4-c4ccc(F)nc4)C[C@]3(C(=O)c3cc(C(F)(F)F)ccn3)C2)n1 [Example 11, N-cyclopropyl-N-((4aS,6S)-1-(6-fluoropyridin-3-yl)-4a-(4-(trifluoromethyl)picolinoyl)-4,4a,5,6,7,8-hexahydro-1H-benzo[f]indazol-6-yl)-1-methyl-1H-1,2,4-triazole-3-sulfonamide] | ≤ 100 nM |
| CC(C)N([C@H]1CCC2=Cc3c(cnn3-c3ccc(F)nc3)C[C@]2(C(=O)c2cc(F)ccn2)C1)S(=O)(=O)c1ncn(C)n1 [Example 66] | ≤ 100 nM |
| Cn1cc(S(=O)(=O)N(CCF)[C@H]2CCC3=Cc4c(cnn4-c4ccc(F)cc4)C[C@]3(C(=O)c3cc(Cl)ccn3)C2)cn1 [Example 29] | ≤ 100 nM |
| CC(C)N([C@H]1CCC2=Cc3c(cnn3-c3ccc(F)cc3)C[C@]2(C(=O)c2ncc(C(C)(C)C)s2)C1)S(=O)(=O)c1cnn(C)c1 [Example 63] | ≤ 100 nM |
| Cn1cc(S(=O)(=O)N(C2CC(F)(F)C2)[C@H]2CCC3=Cc4c(cnn4-c4ccc(F)nc4)C[C@]3(C(=O)c3cc(F)ccn3)C2)cn1 [Example 71] | ≤ 100 nM |
| O=C(c1ccc(C2CC2)cn1)[C@]12Cc3cnn(-c4ccc(F)cc4)c3C=C1CC[C@H](S(=O)(=O)c1ncn(CC(F)(F)F)n1)C2 [Example 95] | ≤ 100 nM |
| CC(C)N([C@H]1CCC2=Cc3c(cnn3-c3ccc(F)cc3)C[C@]2(C(=O)c2cc(F)ccn2)C1)S(=O)(=O)c1cnn(C)c1 [Example 79] | ≤ 100 nM |
| Cn1cnc(S(=O)(=O)N(C2CC2)[C@H]2CCC3=Cc4c(cnn4-c4ccc(F)nc4)C[C@]3(C(=O)c3cc(F)ccn3)C2)n1 [Example 48] | ≤ 100 nM |
| O=C(c1cc(F)ccn1)[C@]12Cc3cnn(-c4ccc(F)cc4)c3C=C1CC[C@H](N(CC(F)(F)F)S(=O)(=O)c1ccc(F)cc1)C2 [Example 34] | ≤ 100 nM |
| C[C@@H]([C@H]1CCC2=Cc3c(cnn3-c3ccc(F)cc3)C[C@]2(C(=O)c2ncc(C(F)(F)F)s2)C1)S(=O)(=O)c1ncn(C)n1 [Example 57] | ≤ 100 nM |
| CC(C)N([C@H]1CCC2=Cc3c(cnn3-c3ccc(F)nc3)C[C@]2(C(=O)c2cc(C(F)(F)F)ccn2)C1)S(=O)(=O)c1cnn(C)c1 [Example 69] | ≤ 100 nM |
| Cn1cnc(S(=O)(=O)N(CC(F)F)[C@H]2CCC3=Cc4c(cnn4-c4ccc(F)cc4)C[C@]3(C(=O)c3cc(Cl)ccn3)C2)n1 [Example 31] | ≤ 100 nM |
| C[C@H]([C@H]1CCC2=Cc3c(cnn3-c3ccc(F)cc3)C[C@]2(C(=O)c2cc(F)ccn2)C1)S(=O)(=O)c1cnn(C)c1 [Example 62] | ≤ 100 nM |
| Cn1cnc(S(=O)(=O)N([C@H]2CCC3=Cc4c(cnn4-c4ccc(F)cc4)C[C@]3(C(=O)c3cc(F)ccn3)C2)[C@H]2C[C@](O)(C(F)(F)F)C2)n1 [Example 43] | 100 to 1000 nM |
| Cn1cnc(S(=O)(=O)N([C@H]2CCC3=Cc4c(cnn4-c4ccc(F)cc4)C[C@]3(C(=O)c3ncc(C(F)(F)F)s3)C2)[C@H]2C[C@@H](C#N)C2)n1 [Example 14] | ≤ 100 nM |
| Cn1cc(S(=O)(=O)C[C@H]2CCC3=Cc4c(cnn4-c4ccc(F)cc4)C[C@]3(C(=O)c3cc(Cl)ccn3)C2)cn1 [Example 26] | ≤ 100 nM |
| Cn1cnc(S(=O)(=O)N(C2CC(F)(F)C2)[C@H]2CCC3=Cc4c(cnn4-c4ccc(F)nc4)C[C@]3(C(=O)c3cc(F)ccn3)C2)n1 [Example 70] | ≤ 100 nM |
| CC(C)N([C@H]1CCC2=Cc3c(cnn3-c3ccc(F)nc3)C[C@]2(C(=O)c2cc(Cl)ccn2)C1)S(=O)(=O)c1ccn(C)n1 [Example 85] | ≤ 100 nM |
| O=C(c1cc(F)ccn1)[C@]12Cc3cnn(-c4ccc(F)nc4)c3C=C1CC[C@H](N(C1CC1)S(=O)(=O)c1ccc(F)cc1)C2 [Example 27] | ≤ 100 nM |
| CC(C)N([C@H]1CCC2=Cc3c(cnn3-c3ccc(F)nc3)C[C@]2(C(=O)c2cc(F)ccn2)C1)S(=O)(=O)c1ccn(C)n1 [Example 84] | ≤ 100 nM |

Results, then the molecule that gave them:

| IC50 | SMILES |
| --- | --- |
| ≤ 100 nM | Cn1cc(S(=O)(=O)N(C2CC(F)(F)C2)[C@H]2CCC3=Cc4c(cnn4-c4ccc(F)cc4)C[C@]3(C(=O)c3cc(Cl)ccn3)C2)cn1 [Example 13] |
| ≤ 100 nM | CCN([C@H]1CCC2=Cc3c(cnn3-c3ccc(F)nc3)C[C@]2(C(=O)c2cc(Cl)ccn2)C1)S(=O)(=O)c1ncn(C)n1 [Example 50] |
| ≤ 100 nM | Cn1cc(S(=O)(=O)N(C2CC2)[C@H]2CCC3=Cc4c(cnn4-c4ccc(F)cc4)C[C@]3(C(=O)c3cc(F)ccn3)C2)cn1 [Example 80] |
| ≤ 100 nM | Cn1cc(S(=O)(=O)N(C2CC2)[C@H]2CCC3=Cc4c(cnn4-c4ccc(F)nc4)C[C@]3(C(=O)c3cc(F)ccn3)C2)cn1 [Example 3, N-Cyclopropyl-N-((4aS,6S)-4a-(4-fluoropicolinoyl)-1-(6-fluoropyridin-3-yl)-4,4a,5,6,7,8-hexahydro-1H-benzo[f]indazol-6-yl)-1-methyl-1H-pyrazole-4-sulfonamide] |
| ≤ 100 nM | Cn1ccc(S(=O)(=O)N(C2CC2)[C@H]2CCC3=Cc4c(cnn4-c4ccc(F)cc4)C[C@]3(C(=O)c3cc(Cl)ccn3)C2)c1 [Example 67] |
| ≤ 100 nM | Cn1cnc(S(=O)(=O)N(C2CC2)[C@H]2CCC3=Cc4c(cnn4-c4ccc(F)cc4)C[C@]3(C(=O)c3ncc(C(C)(C)C)s3)C2)n1 [Example 46] |
| ≤ 100 nM | CN(C)C(=O)CN([C@H]1CCC2=Cc3c(cnn3-c3ccc(F)cc3)C[C@]2(C(=O)c2cc(C(F)(F)F)ccn2)C1)S(=O)(=O)c1ccn(C)n1 [Example 21] |
| ≤ 100 nM | Cn1cnc(S(=O)(=O)N(CC(F)(F)F)[C@H]2CCC3=Cc4c(cnn4-c4ccc(F)cc4)C[C@]3(C(=O)c3cc(F)ccn3)C2)n1 [Example 4, N-((4aS,6S)-1-(4-Fluorophenyl)-4a-(4-fluoropicolinoyl)-4,4a,5,6,7,8-hexahydro-1H-benzo[f]indazol-6-yl)-1-methyl-N-(2,2,2-trifluoroethyl)-1H-1,2,4-triazole-3-sulfonamide] |
| ≤ 100 nM | Cn1cc(S(=O)(=O)N(CCF)[C@H]2CCC3=Cc4c(cnn4-c4ccc(F)cc4)C[C@]3(C(=O)c3cc(C(F)(F)F)ccn3)C2)cn1 [Example 32] |
| ≤ 100 nM | Cn1cnc(S(=O)(=O)N(C2CC2)[C@H]2CCC3=Cc4c(cnn4-c4ccc(F)cc4)C[C@]3(C(=O)c3csc(C(F)(F)F)n3)C2)n1 [Example 22] |
| ≤ 100 nM | C[C@H]([C@H]1CCC2=Cc3c(cnn3-c3ccc(F)cc3)C[C@]2(C(=O)c2ncc(C(F)(F)F)s2)C1)S(=O)(=O)c1ncn(C)n1 [Example 56] |
| ≤ 100 nM | Cn1cnc(S(=O)(=O)[C@H]2CCC3=Cc4c(cnn4-c4ccc(F)cc4)C[C@]3(C(=O)c3ccc(C(F)F)cn3)C2)n1 [Example 92] |

From US20220079924A1, “GLUCOCORTICOID RECEPTOR MODULATORS” (ORIC Pharmaceuticals, Inc., priority 2018, published 2022)
